# Values quoted from earlier work, collected in US7060695B2, “Method to prevent vision loss” (QLT, Inc., priority 2001, dated 2006).
# System: CNV
# Settings: approved protocol, re-treatment as frequently as every three months if CNV leakage
substance,measurement,value
verteporfin,closure of neovasculature,closes neovasculature
same,loss of visual acuity compared to placebo controls,prevents loss of visual acuity compared to placebo controls
